Assays:
HL-60 = test: blood-system cancer cell strain proliferation, Coulter Counter, HL60; type: cell-based; conditions: for HL60 cell number relative to glucose: seventh day, glucose = 100%; for HL60 proliferation inhibitory effect: 0.05-50 mM, 7 days, D-glucose control
Description: (§1) (2) Method: Total 6 kinds of cell strains, i.e., Myeloid (HL-60, THP-1, KG-1), T-cell (MT-2), and B-Cell (Daudi, KS-1), and 3 kinds of rare saccharides (i.e., D-psicose, D-altrose, and D-allose), were employed. The culture medium and the cells were prepared to be 1 mL in total and 1×10^5 in number, respectively. Then, the cell number at each of fourth day and seventh day was counted by using a Coulter Counter. Each rare saccharide was added at concentrations of 0.05, 0.5, 5 and 50 mM, while D-glucose was used as a control.
(§2) Culture Medium: FBS 10% added RPMI1460
(§3) Cultivation Conditions: 37° C., 5% CO2
(§4) Cultivation Vessel: FALCON, MULTIWELL, 12 wells
(§5) Number of Cultivation Days: 7 days
(§6) Saccharides Concentration: 0.05, 0.5, 5, 50 mM

KG-1 = test: blood-system cancer cell strain proliferation, Coulter Counter, KG1; type: cell-based; conditions: 0.05-50 mM, 7 days, including the control
Description: as §1, §2, §3, §4, §5, §6

livers of rats = test: rat liver ischemia-reperfusion, survival; type: in vivo; conditions: liver ischemia 90 minutes then reperfusion; D-allose 0.2 g/kg perfused before the ischemia; usually only 30%
Description: When a surgical operation for intestinal organs, such as the liver, is performed, a blood flow is always temporarily stopped. This brings the intestinal organs into the ischemia state. When blood is started to flow again after the surgery, active oxygen is produced in large amount from leukocyte at that time, which is considered as one of major causes bringing about the organic injury. The inventors conducted an experiment through the steps of bringing the livers of rats into the ischemia state for a relatively long time, i.e., 90 minutes, and then reperfusing blood to examine the survival rate of the rats after 3 months depending on application or non-application of the rare saccharide. While the survival rate is usually only 30%, it increased to about 70% by perfusing D-allose at 0.2 g/kg before the ischemia. […] This effect is considered to be one factor making D-allose effective in organ protection.

[1] = system: island skin flap of Wistar rat; test: island skin-flap ischemia-reperfusion, survival area; type: in vivo
From the text: (1) Purpose: In the past basic researches, the inventors have tried to find out the mechanisms of skin-flap necrosis after ischemia and reperfusion of island skin flaps and necrosis of distal portions of random pattern skin flaps. As a result, the inventors have clarified that active oxygen is related to the necrosis of island skin flaps after ischemia and reperfusion and the necrosis of distal portions of random pattern skin flaps. […] In this Example 7, a first purpose is to obtain basic data regarding active-oxygen production inhibitory effects of rare saccharides, and a second purpose is to ensure clinical applications with the view of effectively preventing the necrosis of island skin flaps and random pattern skin flaps. A third purpose is to realize an application as a preservative liquid for long-period preservation of free skin flaps and amputated limbs. (2) Experiment method: 1) A Wistar rat (♂, 7 to 8 weeks, and 300 g or less) was put under anesthesia through abdominal administration of pentobarbital (Nembutal). 2) The abdomen was wholly shaved by a hair clipper. 3) An island skin flap of 3×5 cm was formed in the left abdomen with the left femoral artery and vein serving as blood vessel pedicels. 4) The elevated island skin flap was stitched to the original position by using a 4-0 nylon string. 5) Drugs (0.6 mL per drug) were each administrated in one shot through the right femoral artery and vein by instantaneous injection. The administered drugs were D-allose, glucose (0.2 mg/g), and physiological saline in various concentrations.
6) After waiting for 15 minutes from the administration of each drug, the blood vessel pedicels of both the left femoral artery and vein were clamped. Two vascular clips (60 g for the vein) were used for the clamping.
7) Complete shutoff of blood circulation was confirmed by using a laser Doppler rheometer.
8) After 8 hours, the rats were unclamped. Resumption of blood circulation was also confirmed by using a laser Doppler rheometer.
9) After 1 week, the life or death of the skin flap was determined.
10) An image of the skin flap was taken by a digital camera and input to a computer to calculate a survival area (%) by using area calculation software.
(3) Experiment groups: The following 6 groups were prepared with n=15 in each group.
1) D-allose: 150 mg (0.5 mg/g)
2) D-allose: 60 mg (0.2 mg/g)
3) D-allose: 30 mg (0.1 mg/g)
4) D-allose: 15 mg (0.05 mg/g)
5) D-glucose: 60 mg (0.2 mg/g)
6) physiological saline (control)
(4) Results (FIGS. 17 to 20): FIG. 18 showing all data of the survival areas (%), and FIG. 19 showing results of variance analysis (one-dimensional arrangement). […] In the multiple comparison assay, a significant difference was determined on condition of p<0.05.

THP-1 = test: blood-system cancer cell strain proliferation, Coulter Counter, THP1; type: cell-based; conditions: 0.05-50 mM, 7 days, D-glucose control
Description: as §1, §2, §3, §4, §5, §6

[2] = influence of psicose upon hyperglycemia; type: in vivo, rat; conditions: 0.5 g/kg intravenous; compared with deoxyglucose control
Description: IVGTT was conducted on 8-week old male SD rats by inserting a catheter through the jugular vein, injecting 50% glucose at intervals of 20 minutes to make a hyperglycemic state, and then injecting psicose and deoxyglucose. A rare saccharide was administrated to 1 rat, and deoxyglucose was administrated to 1 rat.
Perform intravenous injection (IV) at 0.5 g/kg (i.e., 0.5 g/1000 g=500 mg/1000 g=0.5 mg/g).
Prepare rare-saccharide and deoxyglucose solutions in concentration of 0.5 g/mL (i.e., 0.5 g/1000 ul=500 mg/1000 ul=0.5 mg/ul). Prepare 2 mL of solution for each concentration.
Intravenously inject 200 ul of the solution for a 200 g rat.
Intravenously inject 250 ul of the solution for a 250 g rat.
Inject 300 ul of physiological saline after the intravenous injection.
Collect 150 ul of blood sample.
Collect blood at 9 points in time, i.e., 0, 5, 10, 15, 20, 25, 30, 45 and 60 minutes.

Row | Structure (SMILES) | HL60 cell number relative to glucose (HL-60; 0.05 mM) [%] | HL60 cell number relative to glucose (HL-60; 0.5 mM) [%] | HL60 cell number relative to glucose (HL-60; 5 mM) [%] | HL60 proliferation inhibitory effect (HL-60) | HL60 proliferation inhibitory effect (HL-60; listed as allose) | HL60 cell number relative to glucose (HL-60; 50 mM) [%] | KG1 proliferation inhibitory effect (KG-1) | survival rate of the rats after 3 months (livers of rats) | skin flap survival area versus physiological saline group and glucose group ([1]; D-allose 15 mg (0.05 mg/g)) | skin flap survival area versus physiological saline group ([1]; D-allose 30 mg (0.1 mg/g) or more (groups 150, 60, 30 mg), 8 hours clamping, 1 week, p<0.05) | skin flap survival area versus glucose group ([1]; D-allose 150 mg (0.5 mg/g) and 60 mg (0.2 mg/g)) | dose required to develop the effect of extending the skin flap survival area ([1]; per rat, 30 mg = 0.1 mg/g) [mg] | THP1 proliferation inhibitory effect (THP-1) | skin flap survival area versus physiological saline group ([1]; D-glucose 60 mg (0.2 mg/g)) | blood sugar value in hyperglycemic state [2] | insulin concentration in hyperglycemic state [2]
1 | O=C[C@H](O)[C@H](O)[C@H](O)[C@H](O)CO [D-allose] | 62.6 | 67.7 | 41.5 | having the inhibitory effect | showed an inhibitory effect | 30.7 | having the inhibitory effect | about 70% | a statistical significant difference was not confirmed | a statistical significant difference was confirmed | a statistical significant difference was confirmed | ≥ 30 | showed a cell proliferation inhibitory effect at 59 mM | – | – | –
2 | O=C[C@H](O)[C@@H](O)[C@H](O)[C@H](O)CO [D-glucose, reference compound] | – | – | – | – | – | – | – | – | – | – | – | – | – | did not show a statistical significant difference | – | –
3 | O=C(CO)[C@H](O)[C@H](O)[C@H](O)CO [D-psicose] | 84.7 | 80.7 | 84.2 | showed an inhibitory effect | – | 93.6 | – | – | – | – | – | – | – | – | reduced more quickly | an increase in the insulin secretion
